Laboratory results from PMC13095408, “DBeQ derivative targets vacuolar protein sorting 4 functions in cancer cells and suppresses tumor growth in mice” (The Journal of Pharmacology and Experimental Therapeutics, 2025).

Columns and labels:
[1] = system: GFP-CHMP4B- and mCherry-LGALS3-expressing U2OS cells; experiment: mCherry-LGALS3 accumulation, endolysosomal membrane integrity (HCM); type: cell-based; conditions: 2 μM 4-107, starved, 2 hours
Protocol: Live-cell fluorescence imaging and analysis were performed using the CellInsight CX7 LZR high-content screening platform with Onstage Incubator (Thermo Scientific; 37 °C, 5% CO2, 20% O2, 60% humidity). SM was acclimatized at 37 °C and 5% CO2 for at least 30 minutes prior to all experiments for pH equilibration. For cell-based VPS4i screen, U2OS cells stably expressing N-terminal GFP-tagged charged multivesicular body protein 4B (GFP-CHMP4B) were cultured in black clear-bottom 96-well plates (Corning; 3603) at a density of 6000 cells/well. Cells were stained with Hoechst 33342 (1:1000) for 15 minutes at 37 °C, rinsed with 1× Dulbecco's phosphate-buffered saline (DPBS), and treated with SM containing 0.1% DMSO or 1 μM test compounds. Plates were then scanned using the 20× objective for 1 hour with ≥100 cells/well across 6 fields/well. Fluorescence intensity of GFP-CHMP4B foci per cell for each compound was normalized to that of 4-107. For all other assays, the cells were cultured overnight in black glass-bottom 96-well plates (Cellvis; P96-1.5H-N) then stained, rinsed, and treated with SM containing the indicated compounds (0.1% DMSO or 0.1% DMSO/0.1% ethanol [vehicle] final). Plates were scanned using the 20× NA .70 objective at the indicated intervals with ≥ 300 cells/well across 3 fields/well. […]

[2] = Escalating dose MTD study; type: in vivo; conditions: daily doses increasing 50% each day from 5 mg/kg, B6 mice
Protocol: All animal studies were performed in accordance with the guidelines of the Institutional Animal Care and Use Committee at the Penn State College of Medicine (IACUC # PRAMS201145989). To determine the maximum tolerated dose (MTD) of 4-107, escalating and acute dose studies were performed. The escalating MTD study used an intra-animal design where each mouse received daily doses of 4-107 that increased 50% each day from a starting dose of 5 mg/kg. Six female C57BL/6J (B6) (The Jackson Laboratory; 000664) were administered 4-107 either orally via oral gavage or via intraperitoneal injection with 3 mice per group. The acute MTD study had groups of mice receive daily consistent doses of 4-107 i.p. Here, B6 mice were administered 4-107 at either 5 (n = 4; 2 males [M], 2 females [F]), 10 (n = 4; 2 M, 2 F), 15 (n = 5; all M), or 20 mg/kg (n = 5; all M). In both studies, 4-107 dissolved in DMSO was mixed into 30% propylene glycol, 5% Tween 80, and 65% of 5% dextrose in water (PTD [vehicle]) with a final DMSO concentration of ≤ 3%. […] BCS was determined by posture and prominence of skeletal features upon visual inspection and palpation, where BCS < 2 indicated a hunched posture and emaciation. […] The MTD was determined as the highest dose of 4-107 administered without mice reaching the toxicity endpoints.

## COc1cccc2c(NCc3ccccc3)nc(NCc3ccccc3)nc12 [Compound 4-107, N^2,N^4-dibenzyl-8-methoxyquinazoline-2,4-diamine]
[1]
  mCherry-LGALS3 signals (endolysosomal membrane integrity): increase in mCherry-LGALS3 signals
[2]; i.p.
  doses exhibiting toxicity, intraperitoneal route: above 25 mg/kg
[2]; oral gavage, doses up to
  well tolerated dose, oral route: approximately 90 mg/kg
